# Measurements as given in USRE47786E1, “Haloalkyl heteroaryl benzamide compounds” (Romark Laboratories, L.C., priority 2009, dated 2019).
# Tests used:
# [1] = Cytotoxicity by neutral red dye uptake in HBV assay cultures; assay type: cell-based; conditions: human, confluent 2.2.15 cells (HBV-replicating), nine daily doses
# Experimental: (§1) HBV antiviral assays were conducted as previous described [Korba and Gerin, Antiviral Res. 19:55 (1992 Confluent cultures of 2.2.15 cells were maintained on 96-well flat-bottomed tissue culture plates (confluence in this culture system is required for active, high levels of HBV replication equivalent to that observed in chronically-infected individuals [Sells et al. J. Virol. 62, 2836-2844 (1988); Korba and Gerin (1992)]. Cultures were treated with nine consecutive daily doses of the test compounds. HBV DNA levels were assessed by quantitative blot hybridization 24 hr. after the last treatment. Cytotoxicity was assessed by uptake of neutral red dye 24 hr. following the last treatment.
# (§2) EC50, EC90 and CC50 values (±standard deviations [S.D.]) were calculated by linear regression analysis using data combined from all treated cultures (Korba and Gerin, 1992; Okuse et al., 2005). EC50 and EC90 are drug concentrations at which a 2-fold, or a 10-fold depression of intracellular HBV DNA or HCV RNA (relative to the average levels in untreated cultures), respectively, was observed. CC50 is the drug concentration at which a 2-fold lower level of neutral red dye uptake (relative to the average levels in untreated cultures) was observed. Selectivity index (S.I.) was calculated as CC50/EC90 for HBV assays and CC50/EC50 for HCV assays. EC90 values were used for calculation of the S.I. in HBV assays since at least a 3-fold depression of HBV DNA levels is typically required to achieve statistical significance in this assay system (Korba and Gerin, 1992). For combination treatments, EC50, EC90, CC50 and S.I. are presented for the first compound listed. The molar ratio of the compounds in each combination is also indicated.
# HeLa R19 cells [2] = assay: Toxicity (MTT) in HeLa R19 cells (Adenovirus section)
# HeLa R19 cells [3] = assay: Toxicity (MTT) in HeLa R19 cells (Rhinovirus section)
# [4] = Cytotoxicity by neutral red dye uptake in HCV replicon cells; assay type: cell-based; conditions: human, HCV replicon cell line AVAS (sub-genomic CONI), HCV replicon cells genotype 1B
# Experimental: (§3) Antiviral activity of test compounds was assessed in a 3-day assay using the stably-expressing HCV replicon cell line, AVAS (sub-genomic CONI, genotype 1b) [Blight et al., Science 290, 1972-1974 (2000)] maintained as sub-confluent cultures on 96-well plates as previously described (Okuse et al., Antiviral Research 65, 23-34 (2005)]. Antiviral activity was determined by blot hybridization analysis of intracellular HCV RNA (normalized to the level of cellular B-actin RNA in each culture sample) and cytotoxicity was assessed by neutral red dye uptake after 3 days of treatment. Additional studies were performed using Huh7 cells containing another HCV replicon, H/FL-Neo, a genotype 1a full length construct [Blight et al., J. Virol. 77, 3181-3190 (2003)]. For studies involving human serum, standard culture medium (which contains 10% fetal bovine serum) and assay conditions were maintained.
# as §2
# HBV = HBV extracellular virion antiviral assay in 2.2.15 cells; assay type: cell-based; conditions: Hepatitis B virus, extracellular virion HBV DNA, nine daily doses
# Experimental: as §1
# as §2, with “EC50 and EC90 are drug concentrations at which a 2-fold, or a 10-fold depression of intracellular HBV DNA or HCV RNA (relative to the average levels in untreated cultures), respectively, was observed.” left out
# [5] = test system: HCV replicon cell line, AVAS (sub-genomic CONI, genotype 1b); assay: Primary HCV replicon cell assay, genotype 1B; assay type: cell-based; conditions: Hepatitis C virus, 72 h
# Experimental: as §3, §2
# Hep-2 cells = conditions: human
# 37RC cells = assay: Toxicity (MTT) in 37RC cells
# MDCK cells = assay: Toxicity (MTT) in MDCK cells
# MA104 cells [6] = assay: Toxicity (MTT) in MA104 cells (Rotavirus WAG8P1 section)
# MA104 cells [7] = assay: Toxicity (MTT) in MA104 cells (Rotavirus SA11 section)
# MA104 cells [8] = assay: Toxicity (MTT) in MA104 cells (Rhabdovirus section)
# HeLa cells = assay: Toxicity (MTT) in HeLa cells
# A72 cells = assay: Toxicity (MTT) in A72 cells
SMILES,CC50 at 9 days [1],Toxicity LD50 (MTT) (HeLa R19 cells [2]),Toxicity LD50 (MTT) (HeLa R19 cells [3]),CC50 at 3 days [4],EC50 (HBV),EC90 (HBV),EC50 [5],EC90 [5],Toxicity LD50 (MTT) (Hep-2 cells),melting point,Toxicity LD50 (MTT) (37RC cells),Toxicity LD50 (MTT) (MDCK cells),Toxicity LD50 (MTT) (MA104 cells [6]),Toxicity LD50 (MTT) (MA104 cells [7]),Toxicity LD50 (MTT) (MA104 cells [8]),Toxicity LD50 (MTT) (HeLa cells),Toxicity LD50 (MTT) (A72 cells)
CC(=O)Oc1ccccc1C(=O)Nc1ncc(C(F)(F)F)s1 [Compound 1],> 100 µM,4 µg/mL,>50 µg/mL,3.7 µM,3.2 to 4 µM,> 4 µM,< 5 µM,> 5 µM,>50 µg/mL,–,–,–,–,–,–,–,–
O=C(Nc1ncc(C(F)(F)F)s1)c1ccccc1O [Compound 2],> 100 µM,–,–,0.46 µM,3.2 to 4 µM,> 4 µM,0.005 to 0.05 µM,0.005 to 0.05 µM,–,260 to 264 °C (dec.),–,–,–,–,–,–,–
CC(=O)Oc1ccccc1C(=O)Nc1nc(C(F)(F)F)cs1 [Compound 3],> 100 µM,–,–,–,> 4 µM,> 4 µM,–,–,>50 µg/mL,–,–,–,–,–,–,–,–
O=C(Nc1nc(C(F)(F)F)cs1)c1ccccc1O [Compound 4],> 100 µM,–,–,–,> 4 µM,> 4 µM,–,–,>50 µg/mL,–,–,–,–,–,–,–,–
CC(=O)Oc1ccccc1C(=O)Nc1nnc(C(F)(F)F)s1 [Compound 5],> 100 µM,–,–,15 µM,> 4 µM,> 4 µM,< 5 µM,> 5 µM,–,–,>50 µg/mL,>50 µg/mL,–,–,–,–,–
O=C(Nc1nnc(C(F)(F)F)s1)c1ccccc1O [Compound 6],> 100 µM,–,–,5.3 µM,> 4 µM,> 4 µM,< 5 µM,> 5 µM,>50 µg/mL,–,–,–,–,–,–,–,–
"CC(=O)Oc1ccccc1C(=O)Nc1ncc([N+](=O)[O-])s1 [Nitazoxanide, reference compound]",> 100 µM,>50 µg/mL,>50 µg/mL,32 µM,0.05 to 0.2 µM,0.8 to 3.2 µM,0.05 to 0.5 µM,0.5 to 10 µM,>50 µg/mL,–,>50 µg/mL,>50 µg/mL,>50 µg/mL,>50 µg/mL,–,–,–
O=C(Nc1ncc([N+](=O)[O-])s1)c1ccccc1O [Tizoxanide],> 100 µM,0.8 µg/mL,>50 µg/mL,15 µM,0.05 to 0.2 µM,0.8 to 3.2 µM,0.05 to 0.5 µM,0.5 to 10 µM,50 µg/mL,–,>50 µg/mL,>50 µg/mL,>50 µg/mL,>50 µg/mL,50 µg/mL,3 µg/mL,>50 µg/mL
